From patent publication US8536202B2, “Triazole-substituted anthranilamides as pesticides” (Bayer Cropscience AG, priority 2010, dated 2013)
Read-outs that look alike come from different tables or passages of the source.

Assays:
[1] = system: caterpillars of the armyworm (Spodoptera frugiperda); assay: Spodoptera frugiperda test (SPODFR spray treatment); assay type: in vivo; conditions: 168 h, after 7 days; for pest or weed control at 100 g/ha: read-out: activity in %
Procedure, shortened: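 Percent caterpillar mortality read 7 days after infestation (0% none killed, 100% all killed). Treatment was a spray of the acetone/DMF/emulsifier formulation, water-diluted to test concentration, onto Zea mays leaf discs, allowed to dry before larvae were added.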

[2] = log P determination by HPLC on reversed-phase columns (EEC Directive 79/831 Annex V.A8); assay type: physicochemical; conditions: pH 2.7
Procedure, shortened: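 Calibration used unbranched alkan-2-ones of 3 to 16 carbons with known log P, values interpolated linearly from retention times between neighbouring standards. Acidic-range LC-MS run at pH 2.7, eluents aqueous and acetonitrile formic acid 0.1%, linear gradient 10% to 95% acetonitrile.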

[3] = system: green peach aphid (Myzus persicae); assay: Myzus test (MYZUPE spray treatment), Use Example 4; assay type: in vivo; conditions: 144 h, 100 g/ha, after 6 days, read-out: activity in %
Procedure: Solvents: 78 parts by weight of acetone • • 1.5 parts by weight of dimethylformamide
Emulsifier: 0.5 part by weight of alkylaryl polyglycol ether
An appropriate preparation of active compound is prepared by mixing 1 part by weight of active compound with the stated amounts of solvents and emulsifier and diluting the concentrate with emulsifier-containing water to the desired concentration.
Leaf discs of Chinese cabbage (Brassica pekinensis) infested by all stages of the green peach aphid (Myzus persicae) are sprayed with a preparation of active compound at the desired concentration.
After 6 days, the activity in % is ascertained. Here, 100% means that all of the aphids have been killed; 0% means that no aphids have been killed.

[4] = system: larvae of the mustard beetle (Phaedon cochleariae); assay: Phaedon test (PHAECO spray treatment); assay type: in vivo; conditions: 168 h, 100 g/ha, after 7 days, read-out: activity in %
Procedure, shortened: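 Mortality of mustard beetle larvae, expressed as percent killed (100% all, 0% none), assessed 7 days after spraying. Spray liquor made from compound in acetone plus dimethylformamide with alkylaryl polyglycol ether, diluted in emulsifier-containing water to the desired concentration.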

[5] = reversed-phase C18 HPLC column, HPLC on reversed-phase columns (C 18), EEC Directive 79/831 Annex V.A8, read-out: logP

Row | Compound | chromatographic logP [2, 5] | pest or weed control at 100 g/ha [1] [%] | chromatographic logP [2] | pest or weed control at 100 g/ha [3] [%] | pest or weed control at 100 g/ha [4] [%] | pest or weed control at 20 g/ha [1] [%]
1 | CNC(=O)c1cc(C#N)cc(C)c1NC(=O)c1cc(Cn2cc(C(F)(C(F)(F)F)C(F)(F)F)nn2)nn1-c1ncccc1Cl [Example 217] |  | 100 | 3.03 | 100 | 100 | 
2 | Cc1cc(C#N)cc(C(N)=O)c1NC(=O)c1cc(Cn2cc(C(F)(C(F)(F)F)C(F)(F)F)nn2)nn1-c1ncccc1Cl [Example 223] |  |  | 2.84 | 100 | 100 | 100
3 | CNC(=O)c1cc(Cl)cc(C)c1NC(=O)c1cc(Cn2cc(C(F)(C(F)(F)F)C(F)(F)F)nn2)nn1-c1ncccc1Cl [Example 225] |  |  | 3.36 | 100 | 100 | 100
4 | CSC[C@H](C)NC(=O)c1cc(Cl)cc(Cl)c1NC(=O)c1cc(Cn2cc(C(F)(C(F)(F)F)C(F)(F)F)nn2)nn1-c1ncccc1Cl [Example 246] | 4.02 | 100 |  | 80 | 100 | 
5 | CNC(=O)c1cc(C#N)cc(C)c1NC(=O)c1cc(Cn2ncc(C(F)(C(F)(F)F)C(F)(F)F)n2)nn1-c1ncccc1Cl [Example 249] |  | 100 | 3.39 | 80 | 100 | 
6 | CSC[C@H](C)NC(=O)c1cc(C#N)cc(C)c1NC(=O)c1cc(Cn2ncc(C(F)(C(F)(F)F)C(F)(F)F)n2)nn1-c1ncccc1Cl [Example 254] | 4.06 | 100 |  | 80 | 100 | 
7 | Cc1cc(C#N)cc(C(N)=O)c1NC(=O)c1cc(Cn2ncc(C(F)(C(F)(F)F)C(F)(F)F)n2)nn1-c1ncccc1Cl [Example 255] |  | 100 | 3.19 | 80 | 100 | 
8 | CSC[C@H](C)NC(=O)c1cc(Cl)cc(C)c1NC(=O)c1cc(Cn2ncc(C(F)(C(F)(F)F)C(F)(F)F)n2)nn1-c1ncccc1Cl [Example 262] | 4.45 | 100 |  | 80 | 100 | 
9 | Cc1cc(I)cc(C(N)=O)c1NC(=O)c1cc(Cn2ncc(C(F)(C(F)(F)F)C(F)(F)F)n2)nn1-c1ncccc1Cl [Example 271] |  |  | 3.7 | 80 | 100 | 100
10 | CNC(=O)c1cc(Cl)cc(Cl)c1NC(=O)c1cc(Cn2ncc(C(F)(C(F)(F)F)C(F)(F)F)n2)nn1-c1ncccc1Cl [Example 273] |  | 100 | 3.69 | 100 | 100 | 
11 | CNC(=O)c1cc(C#N)cc(C)c1NC(=O)c1cc(Cn2ncc(C(F)(F)F)n2)nn1-c1ccccc1Cl [Example 284] | 3.1 | 100 |  | 80 | 100 | 
12 | Cc1cc(C#N)cc(C(=O)NC(C)C)c1NC(=O)c1cc(Cn2ncc(C(F)(F)F)n2)nn1-c1ccccc1Cl [Example 286] | 3.59 | 100 |  | 80 | 100 | 
13 | CCNC(=O)c1cc(C#N)cc(C)c1NC(=O)c1cc(Cn2ncc(C(F)(F)F)n2)nn1-c1ccccc1Cl [Example 288] | 3.3 | 100 |  | 100 | 100 | 
14 | Cc1cc(C#N)cc(C(=O)NC2CC2)c1NC(=O)c1cc(Cn2ncc(C(F)(F)F)n2)nn1-c1ccccc1Cl [Example 289] | 3.3 | 100 |  | 100 | 100 | 
15 | CNC(=O)c1cc(Cl)cc(C)c1NC(=O)c1cc(Cn2cc(C(F)(F)F)nn2)nn1-c1ccccc1Cl [Example 291] | 3.08 | 100 |  | 80 | 100 | 
16 | CNC(=O)c1cc(C#N)cc(C)c1NC(=O)c1cc(Cn2cc(C(F)(F)F)nn2)nn1-c1ccccc1Cl [Example 293] | 2.63 | 100 |  | 80 | 100 | 
17 | CCNC(=O)c1cc(C#N)cc(C)c1NC(=O)c1cc(Cn2cc(C(F)(F)F)nn2)nn1-c1ccccc1Cl [Example 294] | 2.92 | 100 |  | 100 | 100 | 
18 | CNC(=O)c1cc(C#N)cc(C)c1NC(=O)c1cc(Cn2nncc2C(F)(C(F)(F)F)C(F)(F)F)nn1-c1ccccc1Cl [Example 298] | 3.46 | 100 |  | 80 | 100 | 

Second part, led by results:

Row | chromatographic logP [2, 5] | Compound | pest or weed control at 100 g/ha [1] [%] | chromatographic logP [2] | pest or weed control at 100 g/ha [3] [%] | pest or weed control at 100 g/ha [4] [%] | pest or weed control at 20 g/ha [1] [%]
19 | 3.44 | Cc1cc(C#N)cc(C(=O)NC(C)C)c1NC(=O)c1cc(Cn2cc(C(F)(C(F)(F)F)C(F)(F)F)nn2)nn1-c1ncccc1Cl [Example 219] | 100 |  | 80 | 100 | 
20 | 3.75 | Cc1cc(C#N)cc(C(=O)NC(C)(C)C)c1NC(=O)c1cc(Cn2cc(C(F)(C(F)(F)F)C(F)(F)F)nn2)nn1-c1ncccc1Cl [Example 220] |  |  | 100 | 100 | 100
21 | 3.52 | Cc1cc(C#N)cc(C(=O)NCC2CC2)c1NC(=O)c1cc(Cn2cc(C(F)(C(F)(F)F)C(F)(F)F)nn2)nn1-c1ncccc1Cl [Example 221] | 100 |  | 80 | 100 | 
22 | 3.63 | CSC[C@H](C)NC(=O)c1cc(C#N)cc(C)c1NC(=O)c1cc(Cn2cc(C(F)(C(F)(F)F)C(F)(F)F)nn2)nn1-c1ncccc1Cl [Example 222] | 100 |  | 100 | 100 | 
23 | 3.24 | Cc1cc(C#N)cc(C(=O)NC2CC2)c1NC(=O)c1cc(Cn2cc(C(F)(C(F)(F)F)C(F)(F)F)nn2)nn1-c1ncccc1Cl [Example 224] | 100 |  | 80 | 100 | 
24 | 4.19 | Cc1cc(Cl)cc(C(=O)NC(C)(C)C)c1NC(=O)c1cc(Cn2cc(C(F)(C(F)(F)F)C(F)(F)F)nn2)nn1-c1ncccc1Cl [Example 228] | 100 |  | 80 | 100 | 
25 | 4.04 | CSC[C@H](C)NC(=O)c1cc(Cl)cc(C)c1NC(=O)c1cc(Cn2cc(C(F)(C(F)(F)F)C(F)(F)F)nn2)nn1-c1ncccc1Cl [Example 230] | 100 |  | 80 | 100 | 
26 | 4.26 | CSC[C@H](C)NC(=O)c1cc(I)cc(C)c1NC(=O)c1cc(Cn2cc(C(F)(C(F)(F)F)C(F)(F)F)nn2)nn1-c1ncccc1Cl [Example 238] | 100 |  | 100 | 100 | 
